Test results from patent publication US20250382361A1, “AFFIBODIES, HYDROGELS CONTAINING AFFIBODIES, AND USES THEREOF” (University of Oregon, priority 2024, published 2025).
Where two headings read alike, the source gives them in different places.

Key:
[1] = tested on: HUVECs; assay: Endothelial tube formation assay; type: cell-based, human
Experimental: Human umbilical vein endothelial cells (HUVECs) were seeded in tissue culture flasks at 2,500 cells/cm^2 and cultured in complete Endothelial Growth Medium (Lonza, Walkersville, MD) at 37° C. and 5% CO2. Upon reaching 60-80% confluence, cells were washed with PBS, trypsinized, and seeded at 5,000 or 15,000 cells/well onto 96-well plates pre-coated with 100 μL of Cultrex Reduced Growth Factor Basement Membrane Extract (RGF BME, R&D Systems). HUVECs were allowed to adhere to the coated surface for 2 hours. […] Cells were cultured for 48 hours on a BioTek Lionheart FX automated microscope (Agilent Technologies, Santa Clara, CA) at 37° C. and 5% CO2 with 4× phase contrast time lapse images taken at 4, 8, 12, 16, 20, 24, and 48 hours. Total network length and branching of HUVEC networks were measured from images using the Angiogenesis Analyzer plugin for ImageJ.
Responses of HUVECs to each of the three growth factors of interest were first studied.

[2] = tested on: HUVECs; assay: VEGF bioactivity HUVEC proliferation assay (CellTiter-Glo); type: cell-based, human; details: VEGF for 96 hours
[3] = molecular target: T1, VEGF165 (Homo sapiens, UniProt P15692); details: cited from earlier work
T1 construct: biotin (label as supplied by the vendor); purchased Acro Biosystems
T1 sequence (P15692 1-191 isoform P15692-4): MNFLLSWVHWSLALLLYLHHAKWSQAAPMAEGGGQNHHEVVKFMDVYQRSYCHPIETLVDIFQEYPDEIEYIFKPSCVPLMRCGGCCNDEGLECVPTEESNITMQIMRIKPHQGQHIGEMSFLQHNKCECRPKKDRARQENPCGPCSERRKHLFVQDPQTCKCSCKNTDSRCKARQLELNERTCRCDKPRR

[4] = molecular target: integrin α5β1 (Homo sapiens, UniProt P05556+P08648); details: cited from earlier work
[5] = molecular target: antithrombin-III (Homo sapiens, UniProt P01008); details: cited from earlier work
[6] = molecular target: fibroblast growth factor-1 (Homo sapiens, UniProt P05230); details: cited from earlier work
[7] = molecular target: T2, Recombinant human BMP-2 (bone morphogenetic protein 2) (human, UniProt P12643 283-396, biotinylated with Sulfo-NHS-Biotin (bBMP-2) in flow cytometry and BLI); assay: flow cytometry, yeast-displayed affibody titrated with bBMP-2 0.5-1000 nM
T2 construct: Bought protein; also called bBMP-2; bBMP
From the text: Yeast clones with names starting with the letter A were identified using the gating approach in FIG. 2A, and yeast clones with names starting with B were identified using the gate approach in FIG. 2B. The affibodies chosen for further characterization are boxed in the legend.

[8] = molecular target: T3, Recombinant VEGF165 (vascular endothelial growth factor) (UniProt P15692-4 27-191, biotinylated (bVEGF) in flow cytometry and BLI); assay: biolayer interferometry, 25 nM bVEGF on streptavidin probes, soluble affibody 15.625-125 nM
T3 construct: also called VEGF-A (165); bVEGF
Experimental: All samples were diluted in PBS solution containing 0.05% Tween-20® (PBST). […] Dissociation constants were obtained from a 1:1 global curve fitting of the data. n=4.

[9] = molecular target: PDGF receptor beta (PDGFRβ) on NIH/3T3-Luc cells (UniProt P05622 32-1098, limits assumed); assay: cell-based or functional assay
[10] = tested on: NIH/3T3-Luc cells; assay: PDGF bioactivity luciferase reporter assay; type: cell-based; details: PDGF for 5 hours
Experimental: NIH/3T3 fibroblast cells (ATCC) were thawed, seeded at 10,000 cell/cm^2, and expanded in growth medium consisting of DMEM containing 10% (v/v) fetal bovine serum (R&D Systems, Minneapolis, MN). Cultures were routinely maintained at 37° C. and 5% CO2 and passaged at 60-70% confluence. After three passages of expansion, NIH/3T3 cells were grown in Eagle's Minimal Essential Medium (EMEM, ATCC) for a single passage prior to transfection. Transfection mixtures were prepared according to the manufacturer's protocols. Briefly, 2500 ng of luciferase reporter plasmid pGL4.33 [luc2P/SRE/Hygro] […]
NIH/3T3-Luc cells were seeded at 31,250 cells/cm^2 and incubated in 100 μL of growth medium overnight in 96 well plates. […] Luminescence was then measured using SpectraMax 13 plate reader (Molecular Devices, San Jose, CA).
PDGF bioactivity was assessed using NIH/3T3 cells transfected with a firefly luciferase gene reporter plasmid that links multiple ERK1/2 signaling pathways, including PDGFRβ signaling, to luciferase expression through a serum response element under the regulation of ERK1/2 (FIG. 30A). […] Firefly luciferase expression was assessed via the conversion of 5′-fluoroluciferin to oxyfluoroluciferin, which generates a stable luminescent output correlated to firefly luciferase concentration. […]

T2 sequence (P12643 283-396 limits assumed): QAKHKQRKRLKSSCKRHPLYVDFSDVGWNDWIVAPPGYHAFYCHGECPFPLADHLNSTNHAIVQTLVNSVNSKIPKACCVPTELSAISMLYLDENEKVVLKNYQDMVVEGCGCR
Chain of antithrombin-III (P01008 33-464, species assumed): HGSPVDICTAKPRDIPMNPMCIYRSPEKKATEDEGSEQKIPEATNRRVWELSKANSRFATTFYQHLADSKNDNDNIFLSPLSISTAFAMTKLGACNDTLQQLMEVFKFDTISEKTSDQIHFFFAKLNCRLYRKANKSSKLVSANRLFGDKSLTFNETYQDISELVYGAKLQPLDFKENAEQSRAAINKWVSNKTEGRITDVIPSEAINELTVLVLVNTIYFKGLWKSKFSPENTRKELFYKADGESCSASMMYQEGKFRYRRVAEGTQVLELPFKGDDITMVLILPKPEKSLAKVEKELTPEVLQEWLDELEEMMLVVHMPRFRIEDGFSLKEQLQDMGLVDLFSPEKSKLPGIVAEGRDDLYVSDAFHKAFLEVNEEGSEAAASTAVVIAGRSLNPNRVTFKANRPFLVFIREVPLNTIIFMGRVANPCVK
Chain of fibroblast growth factor-1 (P05230 whole entry, species assumed): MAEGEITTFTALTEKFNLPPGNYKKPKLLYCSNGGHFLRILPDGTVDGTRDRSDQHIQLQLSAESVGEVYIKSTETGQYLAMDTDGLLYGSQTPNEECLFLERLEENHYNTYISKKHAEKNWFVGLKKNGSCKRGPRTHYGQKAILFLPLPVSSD
Chain of integrin α5β1 (P08648 42-894 limits assumed): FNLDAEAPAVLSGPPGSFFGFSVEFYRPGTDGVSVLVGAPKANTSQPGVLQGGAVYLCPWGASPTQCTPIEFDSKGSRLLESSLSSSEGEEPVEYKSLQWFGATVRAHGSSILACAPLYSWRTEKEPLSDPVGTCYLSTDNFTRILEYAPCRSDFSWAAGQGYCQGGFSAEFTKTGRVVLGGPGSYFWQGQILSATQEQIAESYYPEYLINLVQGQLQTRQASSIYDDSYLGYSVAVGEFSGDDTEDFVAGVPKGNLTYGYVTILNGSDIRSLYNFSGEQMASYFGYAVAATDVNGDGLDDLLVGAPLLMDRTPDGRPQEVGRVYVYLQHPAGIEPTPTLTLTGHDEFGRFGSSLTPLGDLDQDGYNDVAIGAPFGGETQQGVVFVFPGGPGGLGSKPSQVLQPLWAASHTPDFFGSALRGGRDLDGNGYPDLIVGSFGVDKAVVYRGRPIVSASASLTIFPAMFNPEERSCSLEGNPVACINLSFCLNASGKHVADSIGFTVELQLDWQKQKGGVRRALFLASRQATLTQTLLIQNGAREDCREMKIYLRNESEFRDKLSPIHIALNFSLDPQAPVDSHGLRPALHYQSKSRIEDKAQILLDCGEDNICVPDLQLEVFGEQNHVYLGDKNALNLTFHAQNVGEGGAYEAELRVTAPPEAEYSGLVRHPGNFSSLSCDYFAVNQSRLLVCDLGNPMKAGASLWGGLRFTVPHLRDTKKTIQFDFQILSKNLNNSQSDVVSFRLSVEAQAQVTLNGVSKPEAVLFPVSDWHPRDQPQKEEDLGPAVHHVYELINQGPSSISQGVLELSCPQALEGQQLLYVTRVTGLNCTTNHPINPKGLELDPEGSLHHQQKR
Chain of integrin α5β1 (P08648 895-1049 limits assumed): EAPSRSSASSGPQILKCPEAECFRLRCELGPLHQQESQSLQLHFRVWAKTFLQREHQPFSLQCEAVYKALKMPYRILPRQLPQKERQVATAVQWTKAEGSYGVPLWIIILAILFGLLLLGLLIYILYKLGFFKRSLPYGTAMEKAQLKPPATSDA
Chain of integrin α5β1 (P05556 21-798): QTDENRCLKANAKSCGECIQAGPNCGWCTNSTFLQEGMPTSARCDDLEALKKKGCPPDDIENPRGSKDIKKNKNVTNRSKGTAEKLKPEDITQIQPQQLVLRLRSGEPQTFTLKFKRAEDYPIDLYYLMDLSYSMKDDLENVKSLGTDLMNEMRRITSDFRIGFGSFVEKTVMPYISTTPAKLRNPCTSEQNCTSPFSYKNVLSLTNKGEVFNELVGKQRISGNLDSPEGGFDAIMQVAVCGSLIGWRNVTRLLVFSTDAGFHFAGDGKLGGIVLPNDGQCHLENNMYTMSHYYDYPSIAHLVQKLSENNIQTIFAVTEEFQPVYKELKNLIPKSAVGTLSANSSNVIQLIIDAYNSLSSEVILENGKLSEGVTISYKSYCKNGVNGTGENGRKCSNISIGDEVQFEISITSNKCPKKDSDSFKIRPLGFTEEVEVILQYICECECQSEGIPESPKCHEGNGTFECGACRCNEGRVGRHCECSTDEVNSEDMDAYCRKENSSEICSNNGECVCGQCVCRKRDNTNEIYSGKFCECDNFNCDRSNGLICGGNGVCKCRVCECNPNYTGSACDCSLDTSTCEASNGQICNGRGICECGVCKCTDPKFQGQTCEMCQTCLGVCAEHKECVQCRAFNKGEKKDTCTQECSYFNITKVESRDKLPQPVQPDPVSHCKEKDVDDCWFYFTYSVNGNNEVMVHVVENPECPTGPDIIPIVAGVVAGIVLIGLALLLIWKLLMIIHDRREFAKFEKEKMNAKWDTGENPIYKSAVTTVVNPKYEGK
Chain of PDGF receptor beta (PDGFRβ) on NIH/3T3-Luc cells (P05622 32-1098 limits assumed): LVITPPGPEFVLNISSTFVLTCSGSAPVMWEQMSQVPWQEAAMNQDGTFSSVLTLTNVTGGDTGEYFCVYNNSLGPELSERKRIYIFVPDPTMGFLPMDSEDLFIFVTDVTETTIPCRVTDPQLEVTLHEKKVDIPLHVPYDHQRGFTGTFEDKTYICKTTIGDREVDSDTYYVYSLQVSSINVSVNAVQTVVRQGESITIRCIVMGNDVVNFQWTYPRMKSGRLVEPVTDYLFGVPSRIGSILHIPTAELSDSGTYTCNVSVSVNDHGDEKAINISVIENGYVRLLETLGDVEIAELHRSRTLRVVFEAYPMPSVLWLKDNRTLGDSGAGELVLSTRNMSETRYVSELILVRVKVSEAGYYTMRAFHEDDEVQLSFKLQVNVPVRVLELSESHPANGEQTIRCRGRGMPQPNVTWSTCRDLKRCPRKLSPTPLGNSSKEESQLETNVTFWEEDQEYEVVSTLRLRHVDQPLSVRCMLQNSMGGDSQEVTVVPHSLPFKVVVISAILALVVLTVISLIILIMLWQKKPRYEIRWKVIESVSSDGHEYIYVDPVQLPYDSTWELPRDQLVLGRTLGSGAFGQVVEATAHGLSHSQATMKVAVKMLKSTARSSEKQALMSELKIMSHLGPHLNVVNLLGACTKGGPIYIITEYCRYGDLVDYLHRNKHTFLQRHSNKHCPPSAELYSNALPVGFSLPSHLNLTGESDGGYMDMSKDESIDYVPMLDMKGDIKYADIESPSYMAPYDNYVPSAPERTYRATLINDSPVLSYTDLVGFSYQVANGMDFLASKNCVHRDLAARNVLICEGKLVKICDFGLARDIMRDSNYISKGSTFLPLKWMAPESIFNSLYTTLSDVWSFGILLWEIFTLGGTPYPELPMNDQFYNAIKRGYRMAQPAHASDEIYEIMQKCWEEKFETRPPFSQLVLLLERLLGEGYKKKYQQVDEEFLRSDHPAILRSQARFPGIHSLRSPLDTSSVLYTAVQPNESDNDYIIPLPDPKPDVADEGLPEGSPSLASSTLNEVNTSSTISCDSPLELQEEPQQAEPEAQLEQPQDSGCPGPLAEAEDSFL

Q: For FGF-2: Recombinant FGF-2 (PeproTech), which “HUVEC network length and branching” value ([1]; 5, 10, or 50 ng/mL) is on record?
A: The value was “limited impact”.

Q: What does the source list for VEGF?
A: maximum response [2]: approximately 36,000 relative luminescent units (RLUs); HUVEC network length and branching [1]: limited impact

Q: For heparin, which Kd [3] is on record?
A: The Kd was 0.165 µM.

Q: And the Kd [4]?
A: Its Kd is 2.04 µM.

Q: What about the Kd [5] of the same molecule?
A: The Kd was 0.163 µM.

Q: And the Kd [6]?
A: Its Kd is 0.461 µM.

B1: Moderate Affinity BMP-2 affibody A2-2 (SEQ ID NO: 2), yeast-displayed (designed binder)
chain: AEAKYAKEQFNAYVVIFYLPNLTASQKAAFVDALSNDPSQSSELLSEAKKLNDSQAPK
Q: With B1 as the molecule, how does the “EC50 (read off the curve)” value [7] read?
A: Its value is about 0.02 µM.

B2: BMP-2 affibody A3-2 (SEQ ID NO: 9), yeast-displayed (designed binder)
chain: AEAKYAKEQFNAYVVIFYLPNLTASQKAAFVDALSNDPSQSSELLSEAKKLNDSQAPK
Q: With B2 as the molecule, how does the “EC50 (read off the curve)” value [7] read?
A: Its value is about 0.01 µM.

B3: Moderate Affinity BMP-2 Affibody, soluble, with hexahistidine tag and C-terminal cysteine (SEQ ID NO: 72) (designed binder)
chain: AEAKYAKEQFNAYVVIFYLPNLTASQKAAFVDALSNDPSQSSELLSEAKKLNDSQAPKHHHHHHC
notes: E. coli-expressed; also called A2-2
Q: Does B3 bind [8]?
A: Result: no binding (tested: 125 nM)

B4: Recombinant human PDGF-BB (platelet-derived growth factor) (ligand, UniProt P01127 82-190, looked up)
chain: SLGSLTIAEPAMIAECKTRTEVFEISRRLIDRTNANFLVWPPCVEVQRCSGCCNNRNVQCRPTQVQLRPVQVRKIEIVRKKPIFKKATVTLEDHLACKCETVAAARPVT
modifications: biotinylated (bPDGF) in flow cytometry and off-target BLI; not biotinylated in the Ni-NTA BLI
Q: Which “50% effective dose (EC50), luminescence of NIH/3T3-Luc reporter cells” value [9] does the source give for B4 here?
A: Its value is 2.94 ng/mL.

B5: PDGF: Recombinant PDGF-BB (PeproTech) (protein)
chain: SLGSLTIAEPAMIAECKTRTEVFEISRRLIDRTNANFLVWPPCVEVQRCSGCCNNRNVQCRPTQVQLRPVQVRKIEIVRKKPIFKKATVTLEDHLACKCETVAAARPVT
Q: With B5 as the molecule, how does the maximal response [10] read?
A: The maximal response was 23,655 relative luminescent units (RLUs).

Q: And the “HUVEC network length and branching” value ([1]; 5, 10, or 50 ng/mL)?
A: Its value is “limited impact”.
